Key:
[1] = target: Serine/threonine-protein kinase Nek7 (Homo sapiens) (UniProt Q8TDX7); conditions: Compound concentration 1000.0 nM
[2] = target: Tyrosine-protein kinase Fer (Homo sapiens) (UniProt P16591); conditions: Compound concentration 1000.0 nM
[3] = target: Misshapen-like kinase 1 (Homo sapiens) (UniProt Q8N4C8); conditions: Compound concentration 1000.0 nM
[4] = target: Homeodomain-interacting protein kinase 2 (Homo sapiens) (UniProt Q9H2X6); conditions: Compound concentration 1000.0 nM
[5] = target: Phosphatidylinositol 3-kinase catalytic subunit type 3 (Homo sapiens) (UniProt Q8NEB9); conditions: Compound concentration 1000.0 nM
[6] = target: Fibroblast growth factor receptor 3 (Homo sapiens) (UniProt P22607); conditions: Compound concentration 1000.0 nM
[7] = target: Mitogen-activated protein kinase kinase kinase 13 (Homo sapiens) (UniProt O43283); conditions: Compound concentration 1000.0 nM
[8] = target: 5'-AMP-activated protein kinase catalytic subunit alpha-2 (Homo sapiens) (UniProt P54646); conditions: Compound concentration 1000.0 nM
[9] = target: Mitogen-activated protein kinase 9 (Homo sapiens) (UniProt P45984); conditions: Compound concentration 1000.0 nM
[10] = target: Serine/threonine-protein kinase PAK 6 (Homo sapiens) (UniProt Q9NQU5); conditions: Compound concentration 1000.0 nM
[11] = target: Phosphatidylinositol 4,5-bisphosphate 3-kinase catalytic subunit gamma isoform (Homo sapiens) (UniProt P48736); conditions: Compound concentration 1000.0 nM
[12] = target: Tyrosine-protein kinase Blk (Homo sapiens) (UniProt P51451); conditions: Compound concentration 1000.0 nM
[13] = tested on: Tyrosine-protein kinase ABL1 (Homo sapiens), P00519 [F317L]; conditions: Compound concentration 1000.0 nM
[14] = target: Tyrosine-protein kinase BTK (Homo sapiens) (UniProt Q06187); conditions: Compound concentration 1000.0 nM
[15] = target: Fibroblast growth factor receptor 2 (Homo sapiens) (UniProt P21802); conditions: Compound concentration 1000.0 nM
[16] = tested on: Receptor-type tyrosine-protein kinase FLT3 (Homo sapiens), P36888 [D835V]; conditions: Compound concentration 1000.0 nM
[17] = tested on: Tyrosine-protein kinase ABL1 (Homo sapiens), P00519 [F317I]; conditions: Compound concentration 1000.0 nM
[18] = tested on: Tyrosine-protein kinase ABL1 (Homo sapiens), P00519 [F317L]; conditions: Compound concentration 1000.0 nM; remark: listed apart in the source
[19] = target: Activin receptor type-1B (Homo sapiens) (UniProt P36896); conditions: Compound concentration 1000.0 nM
[20] = target: Interleukin-1 receptor-associated kinase 3 (Homo sapiens) (UniProt Q9Y616); conditions: Compound concentration 1000.0 nM
[21] = target: Serine/threonine-protein kinase TAO2 (Homo sapiens) (UniProt Q9UL54); conditions: Compound concentration 1000.0 nM
[22] = target: Tyrosine-protein kinase Fyn (Homo sapiens) (UniProt P06241); conditions: Compound concentration 1000.0 nM
[23] = target: Serine/threonine-protein kinase 3 (Homo sapiens) (UniProt Q13188); conditions: Compound concentration 1000.0 nM
[24] = target: Serine/threonine-protein kinase RIO3 (Homo sapiens) (UniProt O14730); conditions: Compound concentration 1000.0 nM
[25] = target: Mitogen-activated protein kinase 7 (Homo sapiens) (UniProt Q13164); conditions: Compound concentration 1000.0 nM
[26] = target: Ephrin type-A receptor 1 (Homo sapiens) (UniProt P21709); conditions: Compound concentration 1000.0 nM
[27] = target: Microtubule-associated serine/threonine-protein kinase 1 (Homo sapiens) (UniProt Q9Y2H9); conditions: Compound concentration 1000.0 nM
[28] = target: Tyrosine-protein kinase HCK (Homo sapiens) (UniProt P08631); conditions: Compound concentration 1000.0 nM
[29] = target: D(2) dopamine receptor (Homo sapiens) (UniProt P14416); conditions: Compound concentration 10.0 uM
[30] = target: Serine/threonine-protein kinase SBK1 (Homo sapiens) (UniProt Q52WX2); conditions: Compound concentration 1000.0 nM
[31] = target: Serine/threonine-protein kinase PAK 4 (Homo sapiens) (UniProt O96013); conditions: Compound concentration 1000.0 nM
[32] = target: Cyclin-dependent kinase 4 (Homo sapiens) (UniProt P11802); conditions: Compound concentration 1000.0 nM
[33] = target: Mitogen-activated protein kinase 10 (Homo sapiens) (UniProt P53779); conditions: Compound concentration 1000.0 nM
[34] = tested on: Receptor-type tyrosine-protein kinase FLT3 (Homo sapiens), P36888 [D835Y]; conditions: Compound concentration 1000.0 nM
[35] = target: Serine/threonine-protein kinase 33 (Homo sapiens) (UniProt Q9BYT3); conditions: Compound concentration 1000.0 nM
[36] = target: Ephrin type-B receptor 2 (Homo sapiens) (UniProt P29323); conditions: Compound concentration 1000.0 nM
[37] = target: Ephrin type-B receptor 6 (Homo sapiens) (UniProt O15197); conditions: Compound concentration 1000.0 nM
[38] = target: Ephrin type-A receptor 7 (Homo sapiens) (UniProt Q15375); conditions: Compound concentration 1000.0 nM
[39] = target: Vascular endothelial growth factor receptor 3 (Homo sapiens) (UniProt P35916); conditions: Compound concentration 1000.0 nM
[40] = target: Tyrosine-protein kinase ITK/TSK (Homo sapiens) (UniProt Q08881); conditions: Compound concentration 1000.0 nM
[41] = target: Mast/stem cell growth factor receptor Kit (Homo sapiens) (UniProt P10721); conditions: Compound concentration 1000.0 nM
[42] = target: Mitogen-activated protein kinase kinase kinase 10 (Homo sapiens) (UniProt Q02779); conditions: Compound concentration 1000.0 nM
[43] = target: Serine/threonine-protein kinase DCLK1 (Homo sapiens) (UniProt O15075); conditions: Compound concentration 1000.0 nM
[44] = target: Phosphatidylinositol 5-phosphate 4-kinase type-2 gamma (Homo sapiens) (UniProt Q8TBX8); conditions: Compound concentration 1000.0 nM
[45] = target: Serine/threonine-protein kinase tousled-like 2 (Homo sapiens) (UniProt Q86UE8); conditions: Compound concentration 1000.0 nM

Chain of Tyrosine-protein kinase ABL1 (Homo sapiens), P00519 [F317L] (P00519 whole entry F317L): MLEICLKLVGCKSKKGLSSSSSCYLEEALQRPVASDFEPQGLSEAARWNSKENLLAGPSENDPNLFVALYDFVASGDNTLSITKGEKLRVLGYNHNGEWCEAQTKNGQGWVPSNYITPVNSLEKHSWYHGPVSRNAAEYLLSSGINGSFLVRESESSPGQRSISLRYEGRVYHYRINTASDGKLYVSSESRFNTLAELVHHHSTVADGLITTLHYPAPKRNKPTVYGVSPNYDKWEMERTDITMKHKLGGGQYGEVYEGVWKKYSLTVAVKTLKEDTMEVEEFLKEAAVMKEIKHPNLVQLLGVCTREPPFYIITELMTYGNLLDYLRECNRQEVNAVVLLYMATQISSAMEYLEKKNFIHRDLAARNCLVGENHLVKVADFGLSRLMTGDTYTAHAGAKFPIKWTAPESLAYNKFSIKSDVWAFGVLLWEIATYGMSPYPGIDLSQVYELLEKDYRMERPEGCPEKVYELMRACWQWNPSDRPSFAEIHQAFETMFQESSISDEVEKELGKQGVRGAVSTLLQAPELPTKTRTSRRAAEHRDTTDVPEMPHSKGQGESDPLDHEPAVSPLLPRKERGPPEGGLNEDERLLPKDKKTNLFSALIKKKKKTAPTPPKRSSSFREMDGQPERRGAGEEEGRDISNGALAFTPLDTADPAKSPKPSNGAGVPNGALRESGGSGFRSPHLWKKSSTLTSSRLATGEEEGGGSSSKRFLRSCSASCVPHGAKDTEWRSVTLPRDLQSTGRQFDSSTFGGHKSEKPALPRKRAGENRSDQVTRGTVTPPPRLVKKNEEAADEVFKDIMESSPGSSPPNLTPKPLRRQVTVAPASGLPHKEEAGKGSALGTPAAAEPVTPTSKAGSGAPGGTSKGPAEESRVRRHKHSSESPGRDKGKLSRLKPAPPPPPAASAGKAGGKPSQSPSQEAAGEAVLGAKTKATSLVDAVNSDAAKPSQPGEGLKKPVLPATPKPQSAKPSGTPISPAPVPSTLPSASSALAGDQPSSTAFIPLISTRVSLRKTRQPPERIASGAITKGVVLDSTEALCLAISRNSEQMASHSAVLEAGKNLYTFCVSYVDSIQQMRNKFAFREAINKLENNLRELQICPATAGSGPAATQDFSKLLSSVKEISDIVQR
Chain of Phosphatidylinositol 4,5-bisphosphate 3-kinase catalytic subunit gamma isoform (Homo sapiens) (P48736 whole entry, looked up, canonical isoform): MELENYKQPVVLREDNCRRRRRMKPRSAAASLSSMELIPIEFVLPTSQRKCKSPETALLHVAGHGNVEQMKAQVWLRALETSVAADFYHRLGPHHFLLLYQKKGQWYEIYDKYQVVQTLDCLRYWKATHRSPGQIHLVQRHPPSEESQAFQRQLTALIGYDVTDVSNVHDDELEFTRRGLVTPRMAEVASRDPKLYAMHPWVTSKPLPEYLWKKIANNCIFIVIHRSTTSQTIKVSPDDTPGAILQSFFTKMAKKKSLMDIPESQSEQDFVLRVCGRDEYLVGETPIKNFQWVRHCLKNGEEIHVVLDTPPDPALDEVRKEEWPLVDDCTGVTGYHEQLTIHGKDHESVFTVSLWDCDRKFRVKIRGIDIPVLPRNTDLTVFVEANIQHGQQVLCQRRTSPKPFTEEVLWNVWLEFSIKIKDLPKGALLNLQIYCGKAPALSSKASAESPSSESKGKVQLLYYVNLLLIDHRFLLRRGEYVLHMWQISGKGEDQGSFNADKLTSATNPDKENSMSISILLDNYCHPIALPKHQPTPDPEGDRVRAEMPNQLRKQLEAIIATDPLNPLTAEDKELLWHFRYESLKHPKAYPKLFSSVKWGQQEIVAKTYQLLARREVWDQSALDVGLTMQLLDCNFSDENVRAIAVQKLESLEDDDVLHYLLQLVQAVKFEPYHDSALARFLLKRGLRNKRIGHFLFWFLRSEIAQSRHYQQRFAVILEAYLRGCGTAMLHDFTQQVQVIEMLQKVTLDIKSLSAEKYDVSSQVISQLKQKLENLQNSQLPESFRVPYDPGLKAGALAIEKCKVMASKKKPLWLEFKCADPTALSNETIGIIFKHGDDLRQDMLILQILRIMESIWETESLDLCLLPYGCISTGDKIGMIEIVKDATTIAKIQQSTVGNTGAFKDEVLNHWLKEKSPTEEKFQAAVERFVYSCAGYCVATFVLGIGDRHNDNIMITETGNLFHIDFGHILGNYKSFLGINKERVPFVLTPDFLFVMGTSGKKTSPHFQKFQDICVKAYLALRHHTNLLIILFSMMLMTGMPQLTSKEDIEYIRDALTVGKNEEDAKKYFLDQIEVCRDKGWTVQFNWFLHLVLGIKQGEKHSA
Chain of Tyrosine-protein kinase BTK (Homo sapiens) (Q06187 whole entry): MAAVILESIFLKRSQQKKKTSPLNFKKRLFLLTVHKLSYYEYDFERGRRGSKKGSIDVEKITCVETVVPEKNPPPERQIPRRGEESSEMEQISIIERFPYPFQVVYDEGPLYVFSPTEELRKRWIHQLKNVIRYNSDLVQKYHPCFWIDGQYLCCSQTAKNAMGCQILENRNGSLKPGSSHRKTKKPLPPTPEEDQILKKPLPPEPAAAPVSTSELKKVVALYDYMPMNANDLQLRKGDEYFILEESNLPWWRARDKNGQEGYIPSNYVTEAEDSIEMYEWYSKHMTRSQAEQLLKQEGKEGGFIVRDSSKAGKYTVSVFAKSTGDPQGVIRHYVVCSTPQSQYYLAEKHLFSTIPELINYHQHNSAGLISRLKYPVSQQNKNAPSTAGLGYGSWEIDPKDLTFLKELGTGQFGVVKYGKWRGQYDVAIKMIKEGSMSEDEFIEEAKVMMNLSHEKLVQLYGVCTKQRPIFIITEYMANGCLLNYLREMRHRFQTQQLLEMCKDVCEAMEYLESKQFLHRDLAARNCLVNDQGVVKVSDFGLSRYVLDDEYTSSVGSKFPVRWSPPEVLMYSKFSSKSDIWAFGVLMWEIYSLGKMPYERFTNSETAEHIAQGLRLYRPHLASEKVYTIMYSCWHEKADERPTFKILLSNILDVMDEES
Chain of Serine/threonine-protein kinase TAO2 (Homo sapiens) (Q9UL54 whole entry): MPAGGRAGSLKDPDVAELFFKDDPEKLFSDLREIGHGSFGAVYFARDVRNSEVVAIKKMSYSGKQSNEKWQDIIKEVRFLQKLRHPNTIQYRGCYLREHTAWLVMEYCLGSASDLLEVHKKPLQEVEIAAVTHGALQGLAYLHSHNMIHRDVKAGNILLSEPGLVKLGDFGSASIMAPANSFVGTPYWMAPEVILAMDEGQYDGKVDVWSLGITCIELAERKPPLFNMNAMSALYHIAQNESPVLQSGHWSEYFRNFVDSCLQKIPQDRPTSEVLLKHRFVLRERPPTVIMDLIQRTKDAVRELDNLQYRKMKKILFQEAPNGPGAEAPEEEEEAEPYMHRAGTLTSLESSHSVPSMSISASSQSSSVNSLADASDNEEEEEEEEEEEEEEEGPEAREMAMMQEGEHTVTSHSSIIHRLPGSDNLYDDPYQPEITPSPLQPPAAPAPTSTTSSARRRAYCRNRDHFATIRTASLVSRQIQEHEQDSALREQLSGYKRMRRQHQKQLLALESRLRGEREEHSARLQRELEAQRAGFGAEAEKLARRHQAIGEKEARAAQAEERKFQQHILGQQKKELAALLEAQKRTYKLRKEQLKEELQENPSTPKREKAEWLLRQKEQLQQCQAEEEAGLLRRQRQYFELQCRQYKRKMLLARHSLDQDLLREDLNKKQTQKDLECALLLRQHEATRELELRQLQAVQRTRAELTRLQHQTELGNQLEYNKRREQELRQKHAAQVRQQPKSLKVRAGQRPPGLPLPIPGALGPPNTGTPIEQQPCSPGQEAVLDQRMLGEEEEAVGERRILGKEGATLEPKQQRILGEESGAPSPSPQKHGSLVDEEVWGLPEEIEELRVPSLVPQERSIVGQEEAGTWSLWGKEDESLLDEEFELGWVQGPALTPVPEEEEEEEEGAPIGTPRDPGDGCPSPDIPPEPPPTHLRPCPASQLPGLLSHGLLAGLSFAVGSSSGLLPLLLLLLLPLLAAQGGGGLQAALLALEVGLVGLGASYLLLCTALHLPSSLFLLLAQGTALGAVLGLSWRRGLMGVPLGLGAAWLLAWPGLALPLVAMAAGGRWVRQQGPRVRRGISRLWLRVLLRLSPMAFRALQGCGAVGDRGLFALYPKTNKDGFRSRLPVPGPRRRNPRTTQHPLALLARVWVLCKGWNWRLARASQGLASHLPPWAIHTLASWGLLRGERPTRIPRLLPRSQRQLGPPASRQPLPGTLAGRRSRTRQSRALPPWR
Chain of Serine/threonine-protein kinase 3 (Homo sapiens) (Q13188 whole entry): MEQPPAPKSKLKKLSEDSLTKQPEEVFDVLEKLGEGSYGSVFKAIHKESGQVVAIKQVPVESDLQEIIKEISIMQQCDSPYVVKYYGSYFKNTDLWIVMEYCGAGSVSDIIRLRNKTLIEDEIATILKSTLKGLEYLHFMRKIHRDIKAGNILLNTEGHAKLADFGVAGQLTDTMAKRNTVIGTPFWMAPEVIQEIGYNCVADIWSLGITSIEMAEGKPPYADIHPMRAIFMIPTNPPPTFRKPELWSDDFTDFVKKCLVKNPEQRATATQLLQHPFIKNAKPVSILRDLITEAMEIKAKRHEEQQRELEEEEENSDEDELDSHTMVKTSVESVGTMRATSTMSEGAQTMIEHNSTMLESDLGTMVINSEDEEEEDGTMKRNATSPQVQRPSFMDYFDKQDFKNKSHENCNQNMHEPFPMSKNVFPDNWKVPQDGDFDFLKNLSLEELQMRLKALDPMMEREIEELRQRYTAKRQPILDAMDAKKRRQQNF
Chain of Cyclin-dependent kinase 4 (Homo sapiens) (P11802 whole entry): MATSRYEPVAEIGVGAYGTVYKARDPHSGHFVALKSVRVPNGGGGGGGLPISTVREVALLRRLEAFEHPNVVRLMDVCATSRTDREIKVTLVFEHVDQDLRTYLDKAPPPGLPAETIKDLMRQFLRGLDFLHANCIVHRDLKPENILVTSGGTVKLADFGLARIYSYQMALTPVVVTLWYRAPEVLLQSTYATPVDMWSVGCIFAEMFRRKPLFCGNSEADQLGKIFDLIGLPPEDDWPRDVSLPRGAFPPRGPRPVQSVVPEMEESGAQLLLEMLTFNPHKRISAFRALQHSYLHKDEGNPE
Chain of Tyrosine-protein kinase ABL1 (Homo sapiens), P00519 [F317I] (P00519 whole entry F317I): as the sequence (P00519 whole entry F317L) above, with L317I counted along it

CCCCN(CCCC)C(=O)CN1C[C@@H](c2cc(OC)c3c(c2)OCO3)[C@H](C(=O)O)[C@H]1CC(C)(C)CCC [A-545]
residual activity [1]: 86.6% | residual activity [2]: 100% | residual activity [3]: 100% | residual activity [4]: 97.1% | residual activity [5]: 98.7% | residual activity [6]: 88.5% | residual activity [7]: 100% | residual activity [8]: 92.6% | residual activity [9]: 100% | residual activity [10]: 100% | residual activity [11]: 90.8% | residual activity [12]: 100% | residual activity [13]: 100% | residual activity [14]: 100% | residual activity [15]: 83.2% | residual activity [16]: 78.8% | residual activity [17]: 94.3% | residual activity [18]: 93.5% | residual activity [19]: 96.4% | residual activity [20]: 85% | residual activity [21]: 95.4% | residual activity [22]: 99.1% | residual activity [23]: 100% | residual activity [24]: 100% | residual activity [25]: 100% | residual activity [26]: 85.5% | residual activity [27]: 100% | residual activity [28]: 82.8% | inhibition [29]: 21.3% | residual activity [30]: 90.6% | residual activity [31]: 90.2% | residual activity [32]: 92.7% | residual activity [33]: 100% | residual activity [34]: 75.2% | residual activity [35]: 100% | residual activity [36]: 73% | residual activity [37]: 87.7% | residual activity [38]: 100% | residual activity [39]: 100% | residual activity [40]: 100% | residual activity [41]: 100% | residual activity [42]: 65.4% | residual activity [43]: 81.5% | residual activity [44]: 80.7% | residual activity [45]: 100%

CCCCN(CCCC)C(=O)CN1C[C@H](c2cc(OC)c3c(c2)OCO3)[C@@H](C(=O)O)[C@@H]1CC(C)(C)CCC [ABT-546]
residual activity [1]: 100% | residual activity [2]: 100% | residual activity [3]: 88.4% | residual activity [4]: 82.3% | residual activity [5]: 49.9% | residual activity [6]: 100% | residual activity [7]: 89.3% | residual activity [8]: 100% | residual activity [9]: 100% | residual activity [10]: 100% | residual activity [11]: 76.9% | residual activity [12]: 95.8% | residual activity [13]: 100% | residual activity [14]: 61.3% | residual activity [15]: 100% | residual activity [16]: 57.4% | residual activity [17]: 72.5% | residual activity [18]: 96.7% | residual activity [19]: 96.4% | residual activity [20]: 100% | residual activity [21]: 71.1% | residual activity [22]: 100% | residual activity [23]: 96.1% | residual activity [24]: 74.9% | residual activity [25]: 100% | residual activity [26]: 92.6% | residual activity [27]: 100% | residual activity [28]: 100% | inhibition [29]: 21.3% | residual activity [30]: 76.5% | residual activity [31]: 100% | residual activity [32]: 100% | residual activity [33]: 91.1% | residual activity [34]: 100% | residual activity [35]: 100% | residual activity [36]: 100% | residual activity [37]: 100% | residual activity [38]: 100% | residual activity [39]: 100% | residual activity [40]: 100% | residual activity [41]: 100% | residual activity [42]: 97% | residual activity [43]: 80.2% | residual activity [44]: 100% | residual activity [45]: 100%

Reference: ChEMBL document CHEMBL4507258 (2021)
